Measured values: patent US20250152751A1, “RED-SHIFTED FLUOROPHORES AND METHODS OF USING THE SAME” (GEORGIA STATE UNIVERSITY RESEARCH FOUNDATION, INC., priority 2022, published 2025)

Assay: Optical properties of the fluorophores measured in ethanol, compared to ICG
Format: physicochemical
Conditions: for Φ^a (%): compared to ICG
Summary of the method: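 Values cover absorption and emission maxima, Stokes shift, quantum yield and molar extinction coefficient. All were obtained for each fluorophore in ethanol, with a reference dye measured for comparison.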

Row | Compound | Stokes Shift (nm) | λabs (nm) | λem (nm) | ϵ (cm^−1 M^−1) | Φ^a (%)
1 | CCCCN1/C(=C/C=C2\CCCC(/C=C(\C#N)C(=O)O)=C2Cl)Sc2ccccc21 [Compound 57] | 14 | 800 | 814 | 198,700 cm^−1 M^−1 | 10.5
2 | CCCCN1C(=CC=C2CCCC(C=C(C#N)C#N)=C2Cl)C(C)(C)c2cc(F)ccc21 [Compound 73] | 17 | 785 | 802 | 168,800 cm^−1 M^−1 | 12.2
3 | CCN1C(=CC=C2CCCC(C=C(C#N)C(=O)O)=C2Cl)C(C)(C)c2cc(F)ccc21 [Compound 50] | 14 | 780 | 799 | 165,300 cm^−1 M^−1 | 12.2
4 | CCN1C(=CC=C2CC(C(C)(C)C)CC(C=C(C#N)C(=O)O)=C2Cl)C(C)(C)c2ccccc21 (stereo not shown) [Compound 58] | 17 | 780 | 797 | 138,200 cm^−1 M^−1 | 12.7
5 | CN1C(=CC=C2CC(C(C)(C)C)CC(C=C(C#N)C(=O)O)=C2Cl)C(C)(C)c2c1ccc1ccccc21 (stereo not shown) [Compound 63] | 6 | 815 | 821 | 167,100 cm^−1 M^−1 | 9.8
6 | CN1C(=CC=C2CCCC(C=C(C#N)C(=O)O)=C2Cl)C(C)(C)c2cc(F)ccc21 [Compound 49] | 15 | 780 | 795 | 195,100 cm^−1 M^−1 | 12.6
7 | CCN1C(=CC=C2CCCC(C=C(C#N)C(=O)O)=C2N2CCC(CO)CC2)C(C)(C)c2cc(Cl)ccc21 [Compound 83] | 122 | 670 | 792 | 75,300 cm^−1 M^−1 | 17.4
8 | CCN1C(=CC=C2CC(C(C)(C)C)CC(C=C(C#N)C(=O)O)=C2Cl)C(C)(C)c2cc(F)ccc21 (stereo not shown) [Compound 59] | 19 | 780 | 799 | 123,000 cm^−1 M^−1 | 12.5
9 | CCN1C(=CC=C2CCCC(C=C(C#N)C#N)=C2Cl)C(C)(C)c2ccccc21 [Compound 71] | 17 | 780 | 797 | 144,100 cm^−1 M^−1 | 12.1
10 | CCCCN1C(=CC=C2CCCC(C=C(C#N)C#N)=C2Cl)C(C)(C)c2ccccc21 [Compound 72] | 15 | 785 | 800 | 143,900 cm^−1 M^−1 | 12.1
11 | CCCCN1C(=CC=C2CCCC(C=C(C#N)C(=O)O)=C2Cl)C(C)(C)c2ccccc21 [Compound 48] | 17 | 785 | 802 | 181,400 cm^−1 M^−1 | 12.1
12 | CCN1C(=CC=C2CCCC(C=C(C#N)C(=O)O)=C2Cl)C(C)(C)c2ccccc21 [Compound 47] | 20 | 780 | 800 | 179,500 cm^−1 M^−1 | 12.3
13 | CCCCN1C(=CC=C2CCCC(C=C(C#N)C(=O)O)=C2Cl)C(C)(C)c2cc(F)ccc21 [Compound 51] | 17 | 785 | 802 | 176,400 cm^−1 M^−1 | 11.9
14 | CCN1C(=CC=C2CCCC(C=C(C#N)C(=O)O)=C2Cl)C(C)(C)c2cc(Cl)ccc21 [Compound 54] | 15 | 790 | 805 | 156,500 cm^−1 M^−1 | 12.0
15 | CCN1C(=CC=C2CC(C(C)(C)C)CC(C=C(C#N)C(=O)O)=C2N2CCC(CO)CC2)C(C)(C)c2cc(Cl)ccc21 (stereo not shown) [Compound 85] | 143 | 645 | 788 | 60,000 cm^−1 M^−1 | 19.9
16 | CCCCN1/C(=C/C=C2\CC(C(C)(C)C)CC(/C=C(\C#N)C(=O)O)=C2Cl)Sc2ccccc21 (stereo not shown) [Compound 65] | 12 | 800 | 812 | 192,000 cm^−1 M^−1 | 10.5
17 | CCCCN1C(=CC=C2CC(C(C)(C)C)CC(C=C(C#N)C(=O)O)=C2Cl)C(C)(C)c2c1ccc1ccccc21 (stereo not shown) [Compound 64] | 8 | 820 | 828 | 146,300 cm^−1 M^−1 | 7.3
18 | CCN1C(=CC=C2CC(C(C)(C)C)CC(C=C(C#N)C(=O)O)=C2Cl)C(C)(C)c2cc(Cl)ccc21 (stereo not shown) [Compound 62] | 15 | 790 | 805 | 114,100 cm^−1 M^−1 | 11.5
19 | CCN1C(=CC=C2CC(c3ccccc3)CC(C=C(C#N)C(=O)O)=C2Cl)C(C)(C)c2cc(F)ccc21 (stereo not shown) [Compound 67] | 16 | 780 | 796 | 124,700 cm^−1 M^−1 | 12.3
20 | CCCCN1/C(=C/C=C2\CCCC(/C=C(\C#N)C(=O)O)=C2Cl)C(C)(C)c2c1ccc1ccccc21 [Compound 56] | 7 | 820 | 827 | 151,100 cm^−1 M^−1 | 9.6
21 | CCN1C(=CC=C2CCCC(C=C(C#N)C(=O)O)=C2Cl)C(C)(C)c2cc(Br)ccc21 [Compound 53] | 17 | 790 | 807 | 171,000 cm^−1 M^−1 | 11.8
22 | CN1C(=CC=C2CCCC(C=C(C#N)C(=O)O)=C2Cl)C(C)(C)c2cc(Br)ccc21 [Compound 52] | 16 | 790 | 806 | 153,600 cm^−1 M^−1 | 11.8
23 | CCN1C(=CC=C2CC(c3ccccc3)CC(C=C(C#N)C(=O)O)=C2Cl)C(C)(C)c2cc(Br)ccc21 (stereo not shown) [Compound 68] | 15 | 790 | 805 | 167,800 cm^−1 M^−1 | 12.1
24 | CCCCN1C(=CC=C2CC(C(C)(C)C)CC(C=C(C#N)C(=O)O)=C2Cl)C(C)(C)c2cc(F)ccc21 (stereo not shown) [Compound 60] | 18 | 785 | 803 | 137,400 cm^−1 M^−1 | 12.6
25 | CCCCN1C(=CC=C2CCCC(C=C(C#N)C(=O)O)=C2Cl)C(C)(C)c2cc(Cl)ccc21 [Compound 55] | 13 | 795 | 808 | 115,500 cm^−1 M^−1 | 11.5
26 | CCN1C(=CC=C2CC(C(C)(C)C)CC(C=C(C#N)C(=O)O)=C2Cl)C(C)(C)c2cc(Br)ccc21 (stereo not shown) [Compound 61] | 15 | 790 | 805 | 123,500 cm^−1 M^−1 | 11.4
